Source: PubChem BioAssay AID516

Target: Biliverdin reductase A (Homo sapiens) (UniProt P53004)
Experiment: ligand binding to human biliverdin reductase A – biophysical, DSF, SYPRO orange, recombinant protein (AID 516)
Conditions: recombinant BLVRA, DSF thermal shift, at 10 µM, buffer 10 mM HEPES, pH 7.5, NaCl 150 mM, active compounds read high

Chain of Biliverdin reductase A (Homo sapiens) (P53004 whole entry, looked up): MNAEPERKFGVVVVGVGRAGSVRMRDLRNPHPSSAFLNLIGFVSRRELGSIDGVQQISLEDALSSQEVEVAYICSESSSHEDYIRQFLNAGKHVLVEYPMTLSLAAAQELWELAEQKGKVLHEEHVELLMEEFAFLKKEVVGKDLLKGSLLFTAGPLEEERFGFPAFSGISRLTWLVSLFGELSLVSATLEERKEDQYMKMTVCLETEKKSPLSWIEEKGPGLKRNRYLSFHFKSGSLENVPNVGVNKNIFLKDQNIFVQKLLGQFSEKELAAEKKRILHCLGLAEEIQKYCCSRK

A Tm shift of 3.8 Celsius was found for `C=CC1=C(C)/C(=C/c2[nH]c(Cc3[nH]c(/C=C4\NC(=O)C(C)=C4C=C)c(C)c3CCC(=O)O)c(CCC(=O)O)c2C)NC1=O` in this work.
